Data as given in US6362360B1, “3-aryl-2-hydroxypropionic acid derivative III” (AstraZeneca AB, priority 1998, dated 2002).

Test system: obese diabetic mice of the Umeå ob/ob strain
Assay: Biological activity in obese diabetic ob/ob mice (plasma glucose, insulin, triglycerides; weight gain)
Format: in vivo
Experimental: The biological activity of the compound of the invention was tested in obese diabetic mice of the Umeå ob/ob strain. Groups of mice received the test compound by gavage once daily for 7 days. On the last day of the experiment the animals were anesthetized 2 h after dose in a non-fed state and blood was collected from an incised artery. Plasma was analyzed for concentration of glucose, insulin and triglycerides. A group of untreated obese diabetic mice of the same age served as control. The weights of the mice were measured before and after the experiment and the obtained weight gains were compared to the weight gains of the control animals. The individual values for glucose, insulin and triglyceride levels of the mice from the test group were expressed as the percentage rage of the corresponding values from the control group. The desired “therapeutic effect” was calculated as the average percent reduction of the three variables glucose, insulin and triglycerides below the levels in the control animals. The therapeutic effect of the tested compounds according to the invention was compared to the same effect in the prior art compound troglitazone, administrered by gavage in the oral dose of 100 μmol/kg for 7 days.

CCO[C@@H](Cc1ccc(OCCc2ccc(NC(=O)OC(C)(C)C)cc2)cc1)C(=O)O [compound of the invention, 3-{4-[2-(4-tert-Butoxycarbonylaminophenyl)ethoxy]phenyl}-(S)-2-ethoxy propanoic acid]
therapeutic effect (average percent reduction of glucose, insulin and triglycerides below the levels in the control animals) (gavage once daily for 7 days, compared to troglitazone in the same oral dose (100 μmol/kg for 7 days)): superior effects
weight gain (weights measured before and after the 7-day experiment, compared to control animals): without undesirable weight gain
